Measurements as given in patent publication US20110110916A1, “METHODS FOR TREATING AND/OR PREVENTING CARDIOMYOPATHIES BY ERK OR JNK INHIBITION” (priority 2008, published 2011).
“Also recorded” adds a separate entry of the source. Like-named read-outs stand apart in the source and are kept apart here.

How the values were obtained:
Assay type in all cases: in vivo, mouse
[1] = tested on: Lmna^H222P/H222P mice; assay: Transthoracic echocardiography at 20 weeks of age, PD98059 or SP600125 from 16 to 20 weeks; conditions: for LVESD compared to DMSO-treated mice: 3 mg/kg/day; for FS and EF: after 4 weeks of treatment; for HR: heart rate; for further deterioration in cardiac function: treated from 16 to 20 weeks of age
Method: Using the methods described in Example 2, we treated Lmna^H222P/H222P mice with PD98059 alone or SP600125 alone, starting at 16 weeks of age, when ejection fraction has already deteriorated and left ventricular end diastolic diameter is increased, until 20 weeks of age.
SP600125, an anthrapyrazolone inhibitor of JNK, and PD98059, a 2′-amino-3′-methoxyflavone MAPK/ERK kinase (MEK) ½ inhibitor, (Calbiochem) were dissolved in dimethyl sulfoxide (DMSO) (Sigma) at a concentration of 1 mg/ml and were delivered to a dose of 3 mg/kg/day for 5 days a week. The placebo control consisted of DMSO alone and was delivered in the same volume. Placebo and inhibitors were administered by intraperitoneal injection using a 27⅝-gauge syringe. Treatments were started when mice were 16 weeks of age and continued until 20 weeks of age or when the mice were 19 weeks and continued until 24 weeks of age.
At 20 weeks or 24 weeks of age, mice were anesthetized with 1.5% isoflurane in O2 and placed on a heating pad (37° C.). Cardiac function was assessed by echocardiography with a Visualsonics Vevo 770 ultrasound with a 30 MHz transducer applied to the chest wall. Cardiac ventricular dimensions and fractional shortening (FS) were measured in 2D mode and M-mode three times in a modified short axis view for the number of animals indicated. A “blinded” echocardiographer (J.S.), unaware of the genotype or treatment, performed the examinations.
We assigned male Lmna^H222P/H222P mice 16 weeks of age to 3 different treatment arms (placebo DMSO, n=28; MEK1/2 inhibitor PD98059, n=22; JNK inhibitor SP600125, n=29) and examined parameters of cardiac structure and function at 20 weeks of age, after 4 weeks treatment. […] Lmna^H222P/H222P mice also have depressed cardiac contractility, with fractional shortening (FS) decreased by 20%-40% compared to Lmna^+/+ mice (13,15). Myocardial fibrosis occurs in Lmna^H222P/H222P mice at 16 weeks of age (16). At 20 weeks, LVEDD and LVESD increase further in Lmna^H222P/H222P mice and cardiac contractility also progressively deteriorates (16). During the 4-week treatment protocol, 6 mice in the DMSO group, 3 in the PD98059 group and 3 in the SP600125 group died prior to reaching 20 weeks of age for evaluation.

[2] = tested on: hearts from Lmna^H222P/H222P mice; assay: Histopathological analysis of hearts (left ventricle, cardiomyocyte nuclear length); conditions: for mean lengths of nuclei in cardiomyocytes compared to the DMSO-treated group: 20 weeks of age, treated 16 to 20 weeks
Method: Mice were sacrificed at 16 weeks of age and freshly removed hearts were fixed in 4% formaldehyde for 48 hours, embedded in paraffin, sectioned at […] and stained with hematoxylin and eosin and Masson's trichrome. Representative stained sections were photographed using a Microphot SA (Nikon) light microscope attached to a Spot RT Slide camera (Diagnostic Instruments). Images were processed using Adobe Photoshop 6.0 (Adobe Systems). Length of cardiomyocytes was measured using Scion Image software (Scion Corporation). Data were reported as means±standard deviations and are compared with respective controls using a two-tailed t test.
Mice were sacrificed at 20 weeks of age, and freshly removed hearts were fixed in 4% formaldehyde for 48 hours, embedded in paraffin, sectioned at 5 μm and stained with hematoxylin, eosin and Gomori's trichrome and Syrius Red. Representative stained sections were photographed using a Microphot SA (Nikon) light microscope attached to a Spot RT Slide camera (Diagnostic Instruments) with a 10× objective. Images were processed using Adobe Photoshop CS (Adobe Systems).

[3] = tested on: Lmna^H222P/H222P mice; conditions: for development of LV dilatation: echocardiography (PD98059 also histopathology); for EF / FS / IVSD / LVEDD / LVESD / LVPW: Lmna^H222P/H222P mice at 16 weeks of age, i.p. 5 days a week from 8 to 16 weeks (PD98059, SP600125 3 mg/kg/day), means ± standard deviations
Method: PD98059 (Calbiochem) and SP600125 (Calbiochem) were dissolved in Dimethyl Sulfoxide (DMSO, Sigma) at a concentration of 0.5 mg/ml and were delivered to a dose of 3 mg/kg/day for 5 days a week. […] The placebo control consisted of DMSO alone. Placebo and inhibitors were administered by intraperitoneal injection using a 27G^5/8 syringe. Treatment was started when mice were 8 weeks of age and continued until 16 weeks of age.
Lmna H222P knock-in mice were generated and genotyped as described (14). […] Lmna^H222P/H222P mice were separated by sex and were given either vehicle alone (DMSO), the MEK inhibitor PD98059 alone, the JNK inhibitor SP600125 alone, both PD98059 and SP600125 together, the MEK inhibitor U0126 alone, or the MEK inhibitor MEK1/2 alone. All the mice were fed on a chow diet and housed in a barrier facility. The Institutional Animal Care and Use Committee at Columbia University Medical Center approved the use of animals in the study protocol.
Cardiac function was assessed by echocardiography with a Visualsonics Vevo 770 ultrasound with a 30-MHz transducer applied to the chest wall. Cardiac ventricular dimensions and ejection fraction were measured in 2D-mode and M-mode three times for the number of animals indicated. A “blinded” echocardiographer, unaware of the genotype or treatment, performed the examinations.
We administered PD98059, at a dose of 3 mg/kg/day or 6 mg/kg/day, or placebo (dimethylsulfoxide; DMSO) by intraperitoneal injection 5 days a week to male homozygous Lmna mutant mice (Lmna^H222P/H222P). […] PD98059 mediates its inhibitory properties by binding to MEK, therefore preventing phosphorylation of ERK1/2.
Treatment was initiated at 8 weeks of age and continued until the mice were 16 weeks of age. At 16 weeks of age, the mice were analyzed by echocardiography and then sacrificed for histological and biochemical studies. Untreated male Lmna^+/+ and Lmna^H222P/H222P mice were similarly analyzed for comparisons.

[4] = 20 weeks of age, 3 mg/kg/day i.p. from 16 to 20 weeks
[5] = 20 weeks of age, 3 mg/kg/day i.p. from 16 to 20 weeks, means ± SEM
[6] = Lmna^H222P/H222P mice at 20 weeks of age, treated from 16 to 20 weeks, means ± SEM
[7] = Lmna^H222P/H222P mice at 20 weeks of age, treated from 16 to 20 weeks, means ± standard deviations
[8] = Lmna^H222P/H222P mice at 20 weeks of age, treated from 16 to 20 weeks
[9] = 16 weeks of age, treated 8 to 16 weeks

SMILES | LVEDD compared to DMSO-treated mice [1, 4] | LVESD compared to DMSO-treated mice [1, 4] | EF [1, 5] | FS and EF ([1]; 20 weeks of age) | EF [1, 6] | FS [1, 6] | LVEDD [1, 6] | LVESD [1, 6] | EF [1, 7] | FS [1, 7] | IVSD [1, 7] | LVEDD [1, 7] | LVESD [1, 7] | LVPW [1, 7] | HR [1, 8] | further deterioration in cardiac function [1] | mean lengths of nuclei in cardiomyocytes compared to the DMSO-treated group [2] | development of LV dilatation [3, 9] | EF [3] | FS [3] | further results
O=C1c2ccccc2-c2n[nH]c3cccc1c23 [SP600125, anthra[1,9-cd]pyrazol-6(2H)-one] | not significantly different | significantly smaller; also recorded: statistically significant reduction | 61.88%±1.66% | increased | 61.88 ± 1.66 % | 33.11 ± 1.16 % | 3.73 ± 0.08 mm | 2.67 ± 0.10 mm | 61.88 ± 8.46 % | 33.11 ± 5.92 % | 0.63 ± 0.07 mm | 3.73 ± 0.42 mm | 2.67 ± 0.49 mm | 0.66 ± 0.09 mm | 363 beats per minute | prevented further deterioration | significantly shorter | prevented development of LV dilatation | 69.24 ± 9.59 % | 38.70 ± 7.38 % | IVSD [3]: 0.72 ± 0.07 mm; LVEDD [3]: 3.46 ± 0.27 mm; LVESD [3]: 2.30 ± 0.45 mm; LVPW [3]: 0.73 ± 0.08 mm
COc1cccc(-c2cc(=O)c3ccccc3o2)c1N [PD98059, 2-(2-amino-3-methoxyphenyl)-4H-1-benzopyran-4-one] | not significantly different | significantly smaller; also recorded: statistically significant reduction | 65.46%±2.64% | increased | 65.46 ± 2.64 % | 35.91 ± 1.88 % | 3.55 ± 0.11 mm | 2.41 ± 0.11 mm | 65.46 ± 11.49 % | 35.91 ± 8.21 % | 0.66 ± 0.05 mm | 3.55 ± 0.50 mm | 2.41 ± 0.50 mm | 0.69 ± 0.08 mm | 350 beats per minute | prevented further deterioration | significantly shorter | prevented development of LV dilatation | 73.52 ± 4.68 % | 41.55 ± 4.29 % | increase of EF compared to the DMSO-treated group [1, 4]: approximately 22%; abnormal elongation of cardiomyocyte nuclei ([2]; 16 week-old mice, treated 8 to 16 weeks): prevented; cardiac contractility (ejection fraction and LV fractional shortening) ([3]; 16 weeks of age, treated 8 to 16 weeks, compared with Lmna^+/+ mice): normal cardiac contractility; IVSD [3]: 0.69 ± 0.06 mm; LVEDD [3]: 3.12 ± 0.20 mm; LVESD [3]: 1.82 ± 0.16 mm; LVPW [3]: 0.77 ± 0.10 mm
